Data on 18 molecules can be found in BindingDB's records for doi:10.1016/s0960-894x(99)00595-8 (Banyu Tsukuba Research Institute In Collaboration With …, 2000).

For orientation: pEC50 means the negative decadic logarithm of the EC50, by convention in mol/L.

pEC50: −log10 of the molar value.

In the assay the target is DNA topoisomerase 2-alpha (Homo sapiens) (UniProt P11388). The assay can be described thus: In vitro inhibition of Topoisomerase II-mediated DNA cleavage using supercoiled pBR322 plasmid DNA.
Sequence of DNA topoisomerase 2-alpha (Homo sapiens) (P11388 whole entry, looked up): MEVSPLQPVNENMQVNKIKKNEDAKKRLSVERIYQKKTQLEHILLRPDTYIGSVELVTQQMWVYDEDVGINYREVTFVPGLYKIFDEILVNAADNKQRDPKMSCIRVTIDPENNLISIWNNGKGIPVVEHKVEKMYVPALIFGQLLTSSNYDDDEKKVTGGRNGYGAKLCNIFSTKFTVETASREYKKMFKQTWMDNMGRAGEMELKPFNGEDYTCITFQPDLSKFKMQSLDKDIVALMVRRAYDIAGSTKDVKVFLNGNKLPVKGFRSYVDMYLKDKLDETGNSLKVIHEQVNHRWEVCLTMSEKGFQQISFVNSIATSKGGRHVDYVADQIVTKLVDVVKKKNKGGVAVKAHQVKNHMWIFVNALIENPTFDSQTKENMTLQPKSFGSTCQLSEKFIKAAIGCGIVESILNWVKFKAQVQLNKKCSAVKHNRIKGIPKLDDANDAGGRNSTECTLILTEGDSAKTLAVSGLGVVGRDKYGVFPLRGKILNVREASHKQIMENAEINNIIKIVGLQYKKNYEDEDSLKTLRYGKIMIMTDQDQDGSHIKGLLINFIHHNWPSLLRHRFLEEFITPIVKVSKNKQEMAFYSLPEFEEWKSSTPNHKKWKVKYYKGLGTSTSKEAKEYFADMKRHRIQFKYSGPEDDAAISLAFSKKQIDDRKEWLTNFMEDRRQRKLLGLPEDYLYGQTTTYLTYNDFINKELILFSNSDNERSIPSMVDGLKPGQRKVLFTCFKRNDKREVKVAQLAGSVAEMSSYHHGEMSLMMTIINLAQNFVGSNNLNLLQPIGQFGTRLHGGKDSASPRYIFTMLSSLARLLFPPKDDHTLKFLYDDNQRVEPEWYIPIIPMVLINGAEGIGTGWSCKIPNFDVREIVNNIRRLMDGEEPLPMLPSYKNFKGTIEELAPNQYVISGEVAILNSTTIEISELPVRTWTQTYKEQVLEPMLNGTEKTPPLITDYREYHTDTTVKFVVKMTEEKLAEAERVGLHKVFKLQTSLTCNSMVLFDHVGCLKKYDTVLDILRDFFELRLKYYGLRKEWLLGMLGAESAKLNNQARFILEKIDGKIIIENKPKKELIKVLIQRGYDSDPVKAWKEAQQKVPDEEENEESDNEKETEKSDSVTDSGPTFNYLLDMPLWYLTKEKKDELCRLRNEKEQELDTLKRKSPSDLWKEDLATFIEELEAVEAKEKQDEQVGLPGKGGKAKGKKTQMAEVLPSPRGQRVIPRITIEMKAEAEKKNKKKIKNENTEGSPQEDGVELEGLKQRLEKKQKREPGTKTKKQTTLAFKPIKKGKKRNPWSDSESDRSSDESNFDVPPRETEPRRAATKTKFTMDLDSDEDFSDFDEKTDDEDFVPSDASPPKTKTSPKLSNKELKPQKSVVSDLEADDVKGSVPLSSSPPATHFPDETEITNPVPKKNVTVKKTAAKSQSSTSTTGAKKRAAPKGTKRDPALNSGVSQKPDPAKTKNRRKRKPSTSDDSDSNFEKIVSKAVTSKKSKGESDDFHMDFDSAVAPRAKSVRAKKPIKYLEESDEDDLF
For the molecule `O=C1c2c(c3c4ccccc4n(C4OC(CO)C(O)C(O)C4O)c3c3[nH]c4c(O)cccc4c23)C(=O)N1NC(CO)CO` (stereo not drawn) [1-hydroxy-6-(2-hydroxy-1-hydroxymethylethylamino)-12-(3,4,5-trihydroxy-6-hydroxymethyltetrahydro-2H-2-pyranyl)-6,7,12,13-tetrahydro-5H-indolo[2,3-a]pyrrolo[3,4-c]carbazole-5,7-dione], the pEC50 is < 4.30.
Regarding `O=C1c2c(c3c4cccc(O)c4n(C4OC(CO)C(O)C(O)C4O)c3c3[nH]c4ccccc4c23)C(=O)N1NC(CO)CO` (stereo not drawn) [1-hydroxy-6-(2-hydroxy-1-hydroxymethylethylamino)-13-(3,4,5-trihydroxy-6-hydroxymethyltetrahydro-2H-2-pyranyl)-6,7,12,13-tetrahydro-5H-indolo[2,3-a]pyrrolo[3,4-c]carbazole-5,7-dione], the pEC50 was < 4.30.
Take `O=C1c2c(c3c4cc(O)ccc4n(C4OC(CO)C(O)C(O)C4O)c3c3[nH]c4cc(O)ccc4c23)C(=O)N1NC(CO)CO` (stereo not drawn) [2,9-dihydroxy-6-(2-hydroxy-1-hydroxymethylethylamino)-12-(3,4,5-trihydroxy-6-hydroxymethyltetrahydro-2H-2-pyranyl)-6,7,12,13-tetrahydro-5H-indolo[2,3-a]pyrrolo[3,4-c]carbazole-5,7-dione]: the pEC50 is < 4.30.
As to `O=C1c2c(c3c4cccc(O)c4n(C4OC(CO)C(O)C(O)C4O)c3c3[nH]c4ccc(O)cc4c23)C(=O)N1NC(CO)CO` (stereo not drawn) [1,9-dihydroxy-6-(2-hydroxy-1-hydroxymethylethylamino)-13-(3,4,5-trihydroxy-6-hydroxymethyltetrahydro-2H-2-pyranyl)-6,7,12,13-tetrahydro-5H-indolo[2,3-a]pyrrolo[3,4-c]carbazole-5,7-dione], the negative-log EC50 (pEC50) was < 4.30.
On to `O=C1c2c(c3c4ccc(O)cc4n(C4OC(CO)C(O)C(O)C4O)c3c3[nH]c4ccc(O)cc4c23)C(=O)N1NC(CO)CO` (stereo not drawn) [2,9-dihydroxy-6-(2-hydroxy-1-hydroxymethylethylamino)-13-(3,4,5-trihydroxy-6-hydroxymethyltetrahydro-2H-2-pyranyl)-6,7,12,13-tetrahydro-5H-indolo[2,3-a]pyrrolo[3,4-c]carbazole-5,7-dione], for which the pEC50 was < 4.30.
For `O=C1c2c(c3c4cc(O)ccc4n(C4OC(CO)C(O)C(O)C4O)c3c3[nH]c4ccc(O)cc4c23)C(=O)N1NC(CO)CO` (stereo not drawn) [3,9-dihydroxy-6-(2-hydroxy-1-hydroxymethylethylamino)-12-(3,4,5-trihydroxy-6-hydroxymethyltetrahydro-2H-2-pyranyl)-6,7,12,13-tetrahydro-5H-indolo[2,3-a]pyrrolo[3,4-c]carbazole-5,7-dione], the pEC50 is < 4.30.
As to `O=C1c2c(c3c4cc(O)ccc4n(C4OC(CO)C(O)C(O)C4O)c3c3[nH]c4ccccc4c23)C(=O)N1NC(CO)CO` (stereo not drawn) [3-hydroxy-6-(2-hydroxy-1-hydroxymethylethylamino)-13-(3,4,5-trihydroxy-6-hydroxymethyltetrahydro-2H-2-pyranyl)-6,7,12,13-tetrahydro-5H-indolo[2,3-a]pyrrolo[3,4-c]carbazole-5,7-dione], the pEC50 was < 4.30.
With `O=C1c2c(c3c4cccc(O)c4n(C4OC(CO)C(O)C(O)C4O)c3c3[nH]c4c(O)cccc4c23)C(=O)N1NC(CO)CO` (stereo not drawn) [1,11-dihydroxy-6-(2-hydroxy-1-hydroxymethylethylamino)-12-(3,4,5-trihydroxy-6-hydroxymethyltetrahydro-2H-2-pyranyl)-6,7,12,13-tetrahydro-5H-indolo[2,3-a]pyrrolo[3,4-c]carbazole-5,7-dione], the pEC50 is < 4.30.
For `O=C1c2c(c3c4ccccc4n(C4OC(CO)C(O)C(O)C4O)c3c3[nH]c4cccc(O)c4c23)C(=O)N1NC(CO)CO` (stereo not drawn) [4-hydroxy-6-(2-hydroxy-1-hydroxymethylethylamino)-12-(3,4,5-trihydroxy-6-hydroxymethyltetrahydro-2H-2-pyranyl)-6,7,12,13-tetrahydro-5H-indolo[2,3-a]pyrrolo[3,4-c]carbazole-5,7-dione] the value was < 4.30; for `O=C1c2c(c3c4ccc(O)cc4n(C4OC(CO)C(O)C(O)C4O)c3c3[nH]c4cc(O)ccc4c23)C(=O)N1NC(CO)CO` (stereo not drawn) [2,10-dihydroxy-6-(2-hydroxy-1-hydroxymethylethylamino)-12-(3,4,5-trihydroxy-6-hydroxymethyltetrahydro-2H-2-pyranyl)-6,7,12,13-tetrahydro-5H-indolo[2,3-a]pyrrolo[3,4-c]carbazole-5,7-dione], < 4.30; for `O=C1c2c(c3c4cc(O)cc(O)c4n(C4OC(CO)C(O)C(O)C4O)c3c3[nH]c4c(O)cc(O)cc4c23)C(=O)N1NC(CO)CO` (stereo not drawn) [1,3,9,11-tetrahydroxy-6-(2-hydroxy-1-hydroxymethylethylamino)-12-(3,4,5-trihydroxy-6-hydroxymethyltetrahydro-2H-2-pyranyl)-6,7,12,13-tetrahydro-5H-indolo[2,3-a]pyrrolo[3,4-c]carbazole-5,7-dione], < 4.30.
On to `O=C1c2c(c3c4cc(O)ccc4n(C4OC(CO)C(O)C(O)C4O)c3c3[nH]c4c(O)cccc4c23)C(=O)N1NC(CO)CO` (stereo not drawn) [1,9-dihydroxy-6-(2-hydroxy-1-hydroxymethylethylamino)-12-(3,4,5-trihydroxy-6-hydroxymethyltetrahydro-2H-2-pyranyl)-6,7,12,13-tetrahydro-5H-indolo[2,3-a]pyrrolo[3,4-c]carbazole-5,7-dione], for which the pEC50 was < 4.30.
Turning to `O=C1c2c(c3c4ccccc4n(C4OC(CO)C(O)C(O)C4O)c3c3[nH]c4cc(O)ccc4c23)C(=O)N1NC(CO)CO` (stereo not drawn) [2-hydroxy-6-(2-hydroxy-1-hydroxymethylethylamino)-12-(3,4,5-trihydroxy-6-hydroxymethyltetrahydro-2H-2-pyranyl)-6,7,12,13-tetrahydro-5H-indolo[2,3-a]pyrrolo[3,4-c]carbazole-5,7-dione], the pEC50 was < 4.30.
Next, `O=C1c2c(c3c4cccc(O)c4n(C4OC(CO)C(O)C(O)C4O)c3c3[nH]c4cc(O)ccc4c23)C(=O)N1NC(CO)CO` (stereo not drawn) [1,10-dihydroxy-6-(2-hydroxy-1-hydroxymethylethylamino)-13-(3,4,5-trihydroxy-6-hydroxymethyltetrahydro-2H-2-pyranyl)-6,7,12,13-tetrahydro-5H-indolo[2,3-a]pyrrolo[3,4-c]carbazole-5,7-dione]: < 4.30; `O=C1c2c(c3c4ccc(O)cc4n(C4OC(CO)C(O)C(O)C4O)c3c3[nH]c4ccccc4c23)C(=O)N1NC(CO)CO` (stereo not drawn) [2-hydroxy-6-(2-hydroxy-1-hydroxymethylethylamino)-13-(3,4,5-trihydroxy-6-hydroxymethyltetrahydro-2H-2-pyranyl)-6,7,12,13-tetrahydro-5H-indolo[2,3-a]pyrrolo[3,4-c]carbazole-5,7-dione]: < 4.30.
As for `O=C1c2c(c3c4ccc(O)cc4n(C4OC(CO)C(O)C(O)C4O)c3c3[nH]c4c(O)cc(O)cc4c23)C(=O)N1NC(CO)CO` (stereo not drawn) [1,3,10-trihydroxy-6-(2-hydroxy-1-hydroxymethylethylamino)-12-(3,4,5-trihydroxy-6-hydroxymethyltetrahydro-2H-2-pyranyl)-6,7,12,13-tetrahydro-5H-indolo[2,3-a]pyrrolo[3,4-c]carbazole-5,7-dione], the pEC50 was < 4.30.
Turning to `O=C1c2c(c3c4ccc(O)cc4n(C4OC(CO)C(O)C(O)C4O)c3c3[nH]c4c(O)cccc4c23)C(=O)N1NC(CO)CO` (stereo not drawn) [1,10-dihydroxy-6-(2-hydroxy-1-hydroxymethylethylamino)-12-(3,4,5-trihydroxy-6-hydroxymethyltetrahydro-2H-2-pyranyl)-6,7,12,13-tetrahydro-5H-indolo[2,3-a]pyrrolo[3,4-c]carbazole-5,7-dione], the pEC50 is < 4.30.
Next, `O=C1c2c(c3c4ccccc4n(C4OC(CO)C(O)C(O)C4O)c3c3[nH]c4ccc(O)cc4c23)C(=O)N1NC(CO)CO` (stereo not drawn) [3-hydroxy-6-(2-hydroxy-1-hydroxymethylethylamino)-12-(3,4,5-trihydroxy-6-hydroxymethyltetrahydro-2H-2-pyranyl)-6,7,12,13-tetrahydro-5H-indolo[2,3-a]pyrrolo[3,4-c]carbazole-5,7-dione]: < 4.30.
